Results on 21 compounds are retold here after ChEMBL document CHEMBL3853318, “Structure-Based Optimization of Potent, Selective, and Orally Bioavailable CDK8 Inhibitors Discovered by High-Throughput Screening” (J Med Chem, 2016).

What is called IC50 is the concentration that inhibits the measured activity by half. In general, inhibition refers to the drop in the measured response relative to a control, in per cent.

One data set deals with CDK8/Cyclin C (Homo sapiens, UniProt P49336). The data set is described as follows: Inhibition of Alexa647 tracer binding to full length recombinant human His-tagged CDK8/cyclin C expressed in Baculovirus expression system preincubated for 20 mins followed by tracer addition and incubated in dark for 60 mins by FRET-based Lanthascreen assay.
A short description of data set [1]: Intrinsic clearance in rat liver microsomes at 1 uM preincubated for 5 mins followed by NADPH addition measured after 5 to 30 mins by LC-MS/MS analysis. In kind it is ADME. Conditions: read-out: CLH. In general terms: Microsomes from liver hold many membrane-bound enzymes, among them those of drug oxidation.
Data set [2] is described as follows: Intrinsic clearance in mouse liver microsomes at 1 uM preincubated for 5 mins followed by NADPH addition measured after 5 to 30 mins by LC-MS/MS analysis. The class given is ADME. Conditions: read-out: CLH.
In data set [3] the target is Cyclin-dependent kinase 8 (Homo sapiens, UniProt P49336). Briefly: Inhibition of CDK8 in human 7dF3 cells preincubated for 2 hrs followed by beta-oestradiol addition measured after 24 hrs by luciferase reporter gene assay. The class given is cell-based. For orientation: In a reporter assay the amount or activity of a reporter protein is the signal.
The nature of data set [4]: Intrinsic clearance in human liver microsomes at 1 uM preincubated for 5 mins followed by NADPH addition measured after 5 to 30 mins by LC-MS/MS analysis. The class given is ADME. Conditions: read-out: CLH.
In data set [5] the target is T1, Tyrosine-protein kinase JAK3 (Homo sapiens) (UniProt P52333).
T1 sequence (whole entry): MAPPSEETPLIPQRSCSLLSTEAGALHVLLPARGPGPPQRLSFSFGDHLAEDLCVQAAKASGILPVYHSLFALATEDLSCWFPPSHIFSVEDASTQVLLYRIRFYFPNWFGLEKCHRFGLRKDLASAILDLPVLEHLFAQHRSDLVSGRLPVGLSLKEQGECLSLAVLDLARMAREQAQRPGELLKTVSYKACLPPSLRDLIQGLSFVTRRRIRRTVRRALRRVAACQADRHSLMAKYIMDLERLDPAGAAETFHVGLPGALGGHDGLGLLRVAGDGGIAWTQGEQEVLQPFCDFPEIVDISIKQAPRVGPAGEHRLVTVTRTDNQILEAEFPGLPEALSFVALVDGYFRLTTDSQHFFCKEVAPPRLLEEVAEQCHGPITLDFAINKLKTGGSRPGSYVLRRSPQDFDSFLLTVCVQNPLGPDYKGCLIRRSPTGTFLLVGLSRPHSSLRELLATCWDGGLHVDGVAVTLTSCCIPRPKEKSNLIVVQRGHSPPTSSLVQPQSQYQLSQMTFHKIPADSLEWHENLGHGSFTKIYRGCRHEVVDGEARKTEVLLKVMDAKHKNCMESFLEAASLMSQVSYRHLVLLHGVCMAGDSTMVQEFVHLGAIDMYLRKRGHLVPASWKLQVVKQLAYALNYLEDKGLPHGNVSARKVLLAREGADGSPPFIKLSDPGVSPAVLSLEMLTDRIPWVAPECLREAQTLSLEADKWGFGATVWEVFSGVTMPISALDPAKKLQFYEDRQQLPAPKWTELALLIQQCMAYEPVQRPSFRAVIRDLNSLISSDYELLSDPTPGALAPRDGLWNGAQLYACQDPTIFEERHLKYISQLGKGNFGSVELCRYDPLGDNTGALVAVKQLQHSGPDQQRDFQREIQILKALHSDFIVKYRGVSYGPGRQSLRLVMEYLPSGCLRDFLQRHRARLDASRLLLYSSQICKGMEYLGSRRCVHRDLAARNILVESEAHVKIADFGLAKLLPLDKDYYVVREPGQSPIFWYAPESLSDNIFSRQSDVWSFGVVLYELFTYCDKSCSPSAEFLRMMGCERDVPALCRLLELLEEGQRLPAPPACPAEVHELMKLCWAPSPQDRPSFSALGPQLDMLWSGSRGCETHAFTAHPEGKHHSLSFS
The data set is described as follows: Inhibition of JAK3 (unknown origin) at 1 uM relative to control.

The target in data set [6] is Non-receptor tyrosine-protein kinase TYK2 (Homo sapiens, UniProt P29597). The data set is described as follows: Inhibition of TYK2 (unknown origin) at 1 uM relative to control.
The target of data set [7] is Tyrosine-protein kinase JAK2 (Homo sapiens, UniProt O60674). The data set is described as follows: Inhibition of JAK2 (unknown origin) at 1 uM relative to control.
Data set [8] has as its target Rho-associated protein kinase 2 (Homo sapiens, UniProt O75116). Briefly: Inhibition of ROCK-2 (unknown origin) at 1 uM relative to control.
Data set [9] addresses Tyrosine-protein kinase JAK1 (Homo sapiens, UniProt P23458). Briefly: Inhibition of JAK1 (unknown origin) at 1 uM relative to control.
Another data set has as its system 7dF3. The data set is described as follows: Ratio of IC50 for CDK8 in human 7dF3 cells to IC50 for Alexa647 tracer binding to full length recombinant human His-tagged CDK8/cyclin C. In kind it is cell-based.

Chain of Non-receptor tyrosine-protein kinase TYK2 (P29597 whole entry): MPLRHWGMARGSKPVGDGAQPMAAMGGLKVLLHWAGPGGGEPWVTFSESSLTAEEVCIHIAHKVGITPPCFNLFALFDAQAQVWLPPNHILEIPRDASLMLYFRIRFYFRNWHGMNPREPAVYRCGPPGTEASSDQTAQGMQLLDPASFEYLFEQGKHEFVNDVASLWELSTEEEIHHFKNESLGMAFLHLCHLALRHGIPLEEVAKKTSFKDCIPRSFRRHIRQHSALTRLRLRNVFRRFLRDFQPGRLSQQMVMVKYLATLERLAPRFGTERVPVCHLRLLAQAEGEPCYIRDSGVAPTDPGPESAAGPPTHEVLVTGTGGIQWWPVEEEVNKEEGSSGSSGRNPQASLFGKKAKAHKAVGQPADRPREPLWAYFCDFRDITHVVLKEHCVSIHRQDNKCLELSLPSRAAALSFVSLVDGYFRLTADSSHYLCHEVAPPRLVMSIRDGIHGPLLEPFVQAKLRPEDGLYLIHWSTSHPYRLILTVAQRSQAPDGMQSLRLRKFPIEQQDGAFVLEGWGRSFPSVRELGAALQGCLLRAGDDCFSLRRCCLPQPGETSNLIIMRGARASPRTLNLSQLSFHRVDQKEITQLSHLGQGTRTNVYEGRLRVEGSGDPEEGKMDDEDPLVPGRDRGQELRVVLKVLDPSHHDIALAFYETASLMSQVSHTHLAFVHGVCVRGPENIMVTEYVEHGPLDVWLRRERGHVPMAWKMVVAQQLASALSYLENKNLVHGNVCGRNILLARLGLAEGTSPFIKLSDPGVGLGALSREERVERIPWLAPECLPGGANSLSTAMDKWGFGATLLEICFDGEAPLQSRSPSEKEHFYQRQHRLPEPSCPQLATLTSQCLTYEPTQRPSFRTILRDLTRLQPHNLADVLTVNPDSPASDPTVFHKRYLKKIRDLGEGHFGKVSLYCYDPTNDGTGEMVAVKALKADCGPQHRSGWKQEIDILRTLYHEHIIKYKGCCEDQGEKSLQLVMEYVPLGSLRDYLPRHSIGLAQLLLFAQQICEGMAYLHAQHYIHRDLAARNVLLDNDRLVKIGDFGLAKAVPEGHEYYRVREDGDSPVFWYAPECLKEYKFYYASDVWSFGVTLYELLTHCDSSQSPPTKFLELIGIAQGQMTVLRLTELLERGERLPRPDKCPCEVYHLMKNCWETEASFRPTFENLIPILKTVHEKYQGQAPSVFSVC
Chain of Rho-associated protein kinase 2 (O75116 whole entry, looked up): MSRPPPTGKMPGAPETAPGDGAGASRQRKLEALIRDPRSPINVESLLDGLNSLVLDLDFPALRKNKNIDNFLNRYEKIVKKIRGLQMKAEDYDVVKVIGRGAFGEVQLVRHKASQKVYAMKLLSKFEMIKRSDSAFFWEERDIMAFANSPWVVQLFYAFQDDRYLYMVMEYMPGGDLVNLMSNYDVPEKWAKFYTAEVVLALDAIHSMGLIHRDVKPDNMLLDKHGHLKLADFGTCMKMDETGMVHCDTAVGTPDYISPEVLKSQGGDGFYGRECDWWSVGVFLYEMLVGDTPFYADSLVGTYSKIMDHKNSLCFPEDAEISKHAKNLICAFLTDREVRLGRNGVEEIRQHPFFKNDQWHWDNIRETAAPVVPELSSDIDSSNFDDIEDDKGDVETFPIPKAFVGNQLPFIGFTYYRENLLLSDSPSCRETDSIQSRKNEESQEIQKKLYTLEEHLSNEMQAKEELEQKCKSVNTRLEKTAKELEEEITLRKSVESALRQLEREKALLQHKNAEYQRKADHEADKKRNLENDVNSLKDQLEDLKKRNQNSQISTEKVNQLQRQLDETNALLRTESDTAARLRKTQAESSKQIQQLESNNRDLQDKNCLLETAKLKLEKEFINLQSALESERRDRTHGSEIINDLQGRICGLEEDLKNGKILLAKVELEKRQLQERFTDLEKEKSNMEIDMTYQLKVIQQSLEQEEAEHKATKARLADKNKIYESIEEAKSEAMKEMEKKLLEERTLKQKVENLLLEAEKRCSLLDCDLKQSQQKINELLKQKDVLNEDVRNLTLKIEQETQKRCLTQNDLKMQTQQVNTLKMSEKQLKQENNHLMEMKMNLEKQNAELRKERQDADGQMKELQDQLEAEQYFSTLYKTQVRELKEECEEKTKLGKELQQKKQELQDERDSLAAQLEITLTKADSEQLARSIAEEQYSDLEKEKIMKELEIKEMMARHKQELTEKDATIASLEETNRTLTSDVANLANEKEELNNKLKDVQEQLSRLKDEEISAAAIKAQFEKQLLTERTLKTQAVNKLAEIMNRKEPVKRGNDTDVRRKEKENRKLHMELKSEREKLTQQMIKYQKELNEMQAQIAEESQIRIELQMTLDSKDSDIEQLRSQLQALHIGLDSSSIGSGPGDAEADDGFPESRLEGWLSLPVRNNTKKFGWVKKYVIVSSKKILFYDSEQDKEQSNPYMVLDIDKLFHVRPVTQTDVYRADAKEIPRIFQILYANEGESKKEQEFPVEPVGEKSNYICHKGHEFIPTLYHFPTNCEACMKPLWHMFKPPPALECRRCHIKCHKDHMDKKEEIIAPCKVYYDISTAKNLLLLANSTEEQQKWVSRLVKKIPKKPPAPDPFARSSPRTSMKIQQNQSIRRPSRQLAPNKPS
Chain of Tyrosine-protein kinase JAK1 (P23458 whole entry): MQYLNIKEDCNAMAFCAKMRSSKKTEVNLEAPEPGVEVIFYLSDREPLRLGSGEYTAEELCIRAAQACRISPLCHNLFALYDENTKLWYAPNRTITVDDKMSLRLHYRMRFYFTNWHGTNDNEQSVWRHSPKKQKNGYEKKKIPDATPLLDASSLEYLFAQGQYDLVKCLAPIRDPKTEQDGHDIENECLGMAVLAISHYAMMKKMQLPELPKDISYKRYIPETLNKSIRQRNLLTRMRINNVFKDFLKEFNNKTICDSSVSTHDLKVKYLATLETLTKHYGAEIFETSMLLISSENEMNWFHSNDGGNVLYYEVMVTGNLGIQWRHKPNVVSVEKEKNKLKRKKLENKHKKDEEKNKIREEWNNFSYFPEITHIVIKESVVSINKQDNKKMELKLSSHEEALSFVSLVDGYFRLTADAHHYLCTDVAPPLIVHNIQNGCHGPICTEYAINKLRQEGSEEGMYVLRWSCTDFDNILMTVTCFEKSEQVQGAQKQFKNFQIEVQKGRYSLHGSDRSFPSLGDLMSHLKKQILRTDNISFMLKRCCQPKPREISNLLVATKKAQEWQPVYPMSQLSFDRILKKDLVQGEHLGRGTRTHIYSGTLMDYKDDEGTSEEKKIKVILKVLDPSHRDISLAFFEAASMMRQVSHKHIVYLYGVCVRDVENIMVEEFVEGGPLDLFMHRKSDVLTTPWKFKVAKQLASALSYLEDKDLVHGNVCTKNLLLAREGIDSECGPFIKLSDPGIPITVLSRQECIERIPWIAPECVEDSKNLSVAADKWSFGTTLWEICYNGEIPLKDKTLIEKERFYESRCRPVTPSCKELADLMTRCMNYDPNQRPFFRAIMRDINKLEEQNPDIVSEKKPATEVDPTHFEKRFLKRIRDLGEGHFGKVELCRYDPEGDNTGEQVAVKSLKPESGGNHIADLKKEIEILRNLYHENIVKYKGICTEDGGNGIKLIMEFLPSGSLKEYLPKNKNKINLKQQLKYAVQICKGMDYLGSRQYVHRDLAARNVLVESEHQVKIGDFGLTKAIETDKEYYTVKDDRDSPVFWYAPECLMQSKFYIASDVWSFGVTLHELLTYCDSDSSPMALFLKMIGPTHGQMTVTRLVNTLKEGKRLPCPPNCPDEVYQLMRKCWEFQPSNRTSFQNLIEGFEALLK
Chain of Tyrosine-protein kinase JAK2 (O60674 whole entry): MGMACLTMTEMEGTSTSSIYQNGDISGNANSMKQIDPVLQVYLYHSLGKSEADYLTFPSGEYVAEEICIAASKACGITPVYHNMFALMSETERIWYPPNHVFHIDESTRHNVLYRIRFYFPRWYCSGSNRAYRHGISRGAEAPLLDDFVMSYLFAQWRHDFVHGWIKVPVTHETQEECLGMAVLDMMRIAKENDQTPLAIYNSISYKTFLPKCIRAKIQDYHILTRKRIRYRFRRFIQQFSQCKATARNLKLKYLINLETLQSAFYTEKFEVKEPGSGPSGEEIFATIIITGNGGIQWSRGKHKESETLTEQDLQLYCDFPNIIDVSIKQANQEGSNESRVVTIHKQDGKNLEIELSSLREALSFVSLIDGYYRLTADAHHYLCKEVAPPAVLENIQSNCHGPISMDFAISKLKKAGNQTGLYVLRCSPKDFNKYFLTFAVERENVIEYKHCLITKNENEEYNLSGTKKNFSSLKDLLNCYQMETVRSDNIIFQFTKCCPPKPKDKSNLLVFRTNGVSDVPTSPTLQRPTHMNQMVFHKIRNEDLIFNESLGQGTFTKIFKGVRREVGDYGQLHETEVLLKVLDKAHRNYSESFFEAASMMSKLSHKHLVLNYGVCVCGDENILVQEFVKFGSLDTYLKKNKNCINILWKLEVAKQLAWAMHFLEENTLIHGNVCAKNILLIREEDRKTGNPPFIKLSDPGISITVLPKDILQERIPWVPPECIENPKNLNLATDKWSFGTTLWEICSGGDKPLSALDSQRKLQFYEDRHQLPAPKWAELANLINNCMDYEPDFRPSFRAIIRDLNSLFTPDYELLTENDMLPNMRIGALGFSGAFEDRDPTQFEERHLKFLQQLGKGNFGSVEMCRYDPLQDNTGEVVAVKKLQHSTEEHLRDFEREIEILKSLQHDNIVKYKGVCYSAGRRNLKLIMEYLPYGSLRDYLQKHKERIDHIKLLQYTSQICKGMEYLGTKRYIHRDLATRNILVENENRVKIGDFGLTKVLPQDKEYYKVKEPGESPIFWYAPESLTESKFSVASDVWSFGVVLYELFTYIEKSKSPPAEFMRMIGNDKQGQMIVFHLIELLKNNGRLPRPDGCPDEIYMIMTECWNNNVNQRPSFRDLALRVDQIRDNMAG

Turning to `Cc1n[nH]c2ccc(C(=O)N3CC[C@H]3c3ccc(Cl)cc3)cc12`, the IC50 turned out to be 1.7 nM at CDK8/Cyclin C and 2 nM in data set [3]. Further, the microsomal CLint at 1 µM in data set [1] was determined as 62 µL/min/mg; in data set [2] it was 113 µL/min/mg; in data set [4] it was 908 µL/min/mg.
On to `Cc1ncc2sc(C(=O)N3CCCC3c3ccc(Cl)cc3)nn12` (stereo unspecified), for which the IC50 was 17 nM at CDK8/Cyclin C and 100 nM in data set [3]. Also, the microsomal CLint at 1 µM in [1] came out at 719 µL/min/mg; in [2], 388 µL/min/mg; in [4], 52 µL/min/mg.
`Nc1n[nH]c2ccc(C(=O)N3CCC[C@H]3c3ccc(F)cc3)cc12`: the inhibition in data set [5] came out at 58%; in [6] it was 62%; in data set [7], 59%; in data set [8], 27%; in data set [9], 72%. Further, the half-inhibitory concentration (IC50) at CDK8/Cyclin C came to 32 nM; in [3] it was 120 nM. Besides, the microsomal CLint at 1 µM in [1], in data set [2] and in data set [4] was under 10 µL/min/mg throughout.
As for `Nc1n[nH]c2ccc(C(=O)N3CC[C@H]3c3ccc(F)cc3)cc12`, the inhibition in data set [5] came out at 21%; in data set [6] it was 45%; in [7] it was 24%; in data set [8], 12%; in [9] it was 63%. Moreover, the IC50 at CDK8/Cyclin C is 49 nM; in data set [3] it was 435 nM. In addition, the microsomal CLint at 1 µM in [1] was under 10 µL/min/mg; in data set [2] it was 10 µL/min/mg; in data set [4], 10 µL/min/mg.
`CCOc1ccccc1C(C)NC(=O)c1nn2c(C)ncc2s1` (stereo unspecified): the figures for the IC50 (at CDK8/Cyclin C; in data set [3]) were 781 nM and 2450 nM, respectively. Also, the microsomal CLint at 1 µM in [1] was 38 µL/min/mg; in data set [2], over 1000 µL/min/mg; in data set [4], 61 µL/min/mg. The Ratio IC50 in the data set on 7dF3 was found to be 3.
Turning to `Cc1n[nH]c2ccc(C(=O)N3CCC[C@H]3c3ccc(Cl)cc3)nc12`, the IC50 on CDK8/Cyclin C came to 1.3 nM; in [3] it was 2.8 nM. The microsomal CLint at 1 µM in [1] was 69 µL/min/mg; in [2], 29 µL/min/mg; in data set [4], 100 µL/min/mg.
`Nc1n[nH]c2ccc(C(=O)N3CC[C@@H](c4ccc(Cl)cc4)C3)cc12`: the inhibition in data set [5] stood at 15%; in data set [6], 23%; in data set [8], 20%; in data set [9] it was 24%. In addition, the IC50 on CDK8/Cyclin C came out at 24 nM; in [3], 150 nM. Further, the figures for the microsomal CLint at 1 µM in data set [1], in data set [2] and in data set [4] were 26 µL/min/mg, 19 µL/min/mg and under 10 µL/min/mg, respectively.
As for `Nc1n[nH]c2ccc(C(=O)N3CCC[C@H]3c3ccc(Br)cc3)cc12`, the inhibition in [5] turned out to be 76%; in [6] it was 76%; in data set [7], 88%; in data set [8], 65%; in [9], 88%. Besides, the IC50 stood at 3.1 nM on CDK8/Cyclin C and 19 nM in data set [3]. Also, the figures for the microsomal CLint at 1 µM in data set [1], in [2] and in [4] were under 10 µL/min/mg, 14 µL/min/mg and under 10 µL/min/mg, respectively.
Regarding `Cc1n[nH]c2cnc(C(=O)N3CCC[C@H]3c3ccc(Cl)cc3)cc12`, the IC50 on CDK8/Cyclin C turned out to be 11 nM; in data set [3] it was 125 nM. Besides, the microsomal CLint at 1 µM in data set [1] stood at 70 µL/min/mg; in data set [2] it was 61 µL/min/mg; in data set [4] it was 206 µL/min/mg.
The matching figures for `Cc1n[nH]c2ccc(C(=O)N3CCC[C@H]3c3ccc(Cl)cc3)cc12`: 1.4 nM, 0.6 nM, 79 µL/min/mg, 244 µL/min/mg and 525 µL/min/mg.
Turning to `Cc1ncc2sc(C(=O)N3CCCC3c3ccc(F)cc3)nn12` (stereo unspecified), the IC50 came out at 60 nM on CDK8/Cyclin C and 290 nM in data set [3]. Further, the results for the microsomal CLint at 1 µM in data set [1], in [2] and in data set [4] were 280 µL/min/mg, 129 µL/min/mg and 38 µL/min/mg, respectively. Also, the Ratio IC50 in the data set on 7dF3 worked out at 3.
Take `Cc1n[nH]c2ccc(C(=O)N3CCOCC3c3ccc(Cl)cc3)cc12` (stereo unspecified): the IC50 was 8.5 nM at CDK8/Cyclin C and 115 nM in [3]. The microsomal CLint at 1 µM in [1] was 44 µL/min/mg; in data set [2], 29 µL/min/mg; in [4], 135 µL/min/mg.
For `Cc1nnc2ccc(C(=O)N3CCC[C@H]3c3ccc(Cl)cc3)cn12`, the IC50 is 3990 nM on CDK8/Cyclin C and over 10000 nM in data set [3]. Further, the microsomal CLint at 1 µM in [1] was 19 µL/min/mg; in data set [2] it was 18 µL/min/mg; in data set [4], under 10 µL/min/mg.
Consider `Cc1n[nH]c2ccc(C(=O)N3CCN(C)CC3c3ccc(Cl)cc3)cc12` (stereo unspecified), for which the IC50 at CDK8/Cyclin C worked out at 15 nM; in data set [3], 230 nM. Also, the microsomal CLint at 1 µM came out at 40 µL/min/mg in data set [1], 63 µL/min/mg in data set [2] and 135 µL/min/mg in [4].
As to `Cc1ncc2ccc(C(=O)N3CCC[C@H]3c3ccc(Cl)cc3)cn12`, the values for the IC50 (at CDK8/Cyclin C; in data set [3]) were 9 nM and 90 nM, respectively. Besides, the microsomal CLint at 1 µM was determined as 108 µL/min/mg in data set [1], 63 µL/min/mg in [2] and 390 µL/min/mg in data set [4].
Turning to `Nc1n[nH]c2ccc(C(=O)N3CCCC[C@H]3c3ccc(F)cc3)cc12`, the IC50 came to 45 nM on CDK8/Cyclin C and 800 nM in data set [3]. For the same compound, the microsomal CLint at 1 µM was 15 µL/min/mg in data set [1], 28 µL/min/mg in data set [2] and under 10 µL/min/mg in data set [4]. Also, the inhibition in [6] was 17%; in data set [7] it was -2%; in [8], 22%; in data set [9] it was 21%.
For the compound `Cc1ncc2sc(C(=O)N3CCC[C@@H]3c3ccc(Cl)cc3)nn12`, the IC50 on CDK8/Cyclin C was 110 nM; in data set [3], 1600 nM. In addition, the results for the microsomal CLint at 1 µM in [1], in data set [2] and in data set [4] were 449 µL/min/mg, 514 µL/min/mg and 60 µL/min/mg, respectively.
Consider `Cc1ncc2sc(C(=O)N3CCCC3c3ccccc3)nn12` (stereo unspecified), for which the IC50 on CDK8/Cyclin C turned out to be 77 nM; in data set [3] it was 415 nM. Moreover, the microsomal CLint at 1 µM in [1] came out at 446 µL/min/mg; in data set [2] it was 145 µL/min/mg; in [4], 56 µL/min/mg. The Ratio IC50 with 7dF3 was 3.
Turning to `O=C(c1ccc2[nH]ncc2c1)N1CCC[C@H]1c1ccc(Cl)cc1`, the results for the IC50 (on CDK8/Cyclin C; in data set [3]) were 32 nM and 100 nM, respectively. In addition, the microsomal CLint at 1 µM in [1] worked out at 94 µL/min/mg; in data set [2], 86 µL/min/mg; in data set [4], 354 µL/min/mg.
With `Cc1ncc2sc(C(=O)N3CCC[C@H]3c3ccc(Cl)cc3)nn12`, the results for the IC50 (on CDK8/Cyclin C; in data set [3]) were 3.8 nM and 70 nM, respectively. Besides, the figures for the microsomal CLint at 1 µM in data set [1], in [2] and in data set [4] were 655 µL/min/mg, 447 µL/min/mg and 49 µL/min/mg, respectively.
On to `CNc1n[nH]c2ccc(C(=O)N3CCC[C@H]3c3ccc(Cl)cc3)cc12`, for which the inhibition in data set [5] came to 37%; in [6], 32%; in data set [7], 34%; in [8], 17%; in [9], 34%. The IC50 on CDK8/Cyclin C came to 5.4 nM; in data set [3], 12 nM. The values for the microsomal CLint at 1 µM in data set [1], in data set [2] and in data set [4] were 28 µL/min/mg, 31 µL/min/mg and 18 µL/min/mg, respectively.
